Results from article PMC5589090 (PLoS Medicine, 2017).
Values joined by “and” are separate entries in the source; they are usually repeats but may differ in a detail not shown here. Identical values can stand only once. “Also recorded” adds a separate entry of the source. Like-named read-outs stand apart in the source and are kept apart here.

Experiments:
[1] = THU solubility and storage stability; assay type: physicochemical; details: stored at -20°C; 1 year study and about 4 years re test
Method: Prior to administration, a glass bottle containing THU will be brought to room temperature, and dissolved in 2 ml water with a further dilution to a final volume of 10 ml, to create a solution with a final concentration that is determined by the amount of drug in the glass vial (THU is soluble to at least 100 mg/ml in water). Using this final concentration, a volume of solution containing the appropriate dose will be removed, diluted further with water to a total volume of 30ml and given by mouth. The time between reconstitution of drug and oral administration should not exceed 60 minutes, and remaining solution is to be discarded.

[2] = cited from earlier work
[3] = set-up: method as in ref 40,59-61,63-69 (main text); 25;37-45 (protocol); details: 25;37-45 (protocol); cited from earlier work
nucleotide pool sizes = details: cited from earlier work
[4] = in vivo; cited from earlier work
[5] = 4 SCD subjects, subcutaneous or oral, 30-500 days; cited from earlier work
HbF [6] = details: same non-human primates (n = 14); cited from earlier work
mammary tumors = details: intraperitoneal 125-250 mg/kg thrice weekly for 6 months, rats surviving to 18 months; cited from earlier work
HbF [7] = details: cited from earlier work
[8] = cited from earlier work; remark: listed apart in the source
[9] = set-up: method as in ref 26 (a number printed in a supplementary file, which may have a reference list of its own: not looked up in the article's list); details: cited from earlier work
[10] = cited from earlier work; remark: listed apart in the source

Q: For `O=C1NC(O)CCN1[C@@H]1O[C@H](CO)[C@@H](O)[C@H]1O` (stereo partly drawn) [THU, tetrahydrouridine], which “stability of bulk drug” value [1] is on record?
A: The value was “demonstrate THU stability”.

Q: And the solubility in water [2]?
A: Its solubility in water is “at least 100 mg/ml”.

Q: And the “toxicity / side effects in animals and humans” value [3]?
A: Its value is “No toxicities have been found; also recorded: have not identified any toxic side-effects; also recorded: no toxic side-effects have been identified; also recorded: benign toxicity profile; also recorded: no side effects observed; also recorded: has not caused toxicity”.

Q: What about the “effect on nucleotide pool sizes” value (nucleotide pool sizes) of the same compound?
A: The value was “no effect”.

Q: And the “share of elimination by renal excretion” value [4]?
A: Its value is ~ 50%.

Q: With `Nc1ncn([C@@H]2O[C@H](CO)[C@@H](O)[C@H]2O)c(=O)n1` [5-azacytidine] as the compound, how does the marrow toxicity [5] read?
A: The marrow toxicity was “No marrow toxicity was observed”.

Q: What about the “greater increases in HbF than cytarabine or hydroxyurea” value (HbF [6]) of the same compound?
A: The value was 2 to 20 fold.

Q: With `NC(=O)NO` [hydroxyurea] as the compound, how does the “incidence of mammary tumors” value (mammary tumors) read?
A: Its value is “increased the incidence of mammary tumors”.

Q: And the “mean change in HbF after 2 years of treatment” value (HbF [7]; SCD patients with no HbF response in the pivotal trial)?
A: The value was ~0% and 0.3%.

Q: And the “adult SCD patients in whom HbF increased for 2 years” value (HbF [7]; hydroxyurea 15–35 mg/kg, pivotal trial)?
A: The value was “approximately 50%”.

Q: And the “subjects who did not respond (no elevated HbF after two years)” value (HbF [7]; pivotal multi-center trial)?
A: The value was “approximately 50%”.

Q: What about the “Average HbF increases at 2 years” value (HbF [7]; pivotal trial) of the same compound?
A: The value was 3.6%.

Q: What about the “average total hemoglobin increase” value (HbF [7]; pivotal trial) of the same compound?
A: Its value is 0.6 g/dL.

Q: What about the genotoxicity ([8]; package insert) of the same compound?
A: The genotoxicity was “genotoxic in a wide range of test systems”.

Q: What about the neutrophil recovery time ([8]; pancellular hematologic toxicities, ref AHFS Drug Information, 2000) of the same compound?
A: Its neutrophil recovery time is “up to 2 weeks”.

Q: For `Nc1ccn([C@@H]2O[C@H](CO)[C@@H](O)C2(F)F)c(=O)n1` [gemcitabine], which oral bioavailability ([9]; with THU co-administration) is on record?
A: The oral bioavailability was ~ 40%.

Q: And the oral bioavailability ([9]; without THU)?
A: Its oral bioavailability is ~ 10%.

Q: Which “greater exposure in mice versus monkey dose for dose” value [10] does the source give for `Nc1ccn([C@@H]2O[C@H](CO)[C@@H](O)[C@@H]2O)c(=O)n1` [cytarabine] here?
A: Its value is “more than 100 fold”.
